# Values quoted from earlier work in patent US20040023994A1 (priority 2002, published 2004).
# Columns and labels:
# [1] = system: NCI/ADR-RES; settings: Breast, NCI database, cited from earlier work
# [2] = system: K-562; settings: K-562, Leukemia, NCI database, cited from earlier work
# [3] = system: CAKI-1; settings: CAKI-1, Renal, NCI database, cited from earlier work
# [4] = cited from earlier work
# [5] = system: SF-295; settings: SF-295, CNS, NCI database, cited from earlier work
# [6] = system: HOP-92; settings: HOP-92, Non-Small Cell Lung, NCI database, cited from earlier work
# [7] = system: SF-268; settings: SF-268, CNS, NCI database, cited from earlier work
# [8] = system: OVCAR-8; settings: OVCAR-8, Ovarian, NCI database, cited from earlier work
# [9] = system: A549/ATCC; settings: Non-Small Cell Lung, NCI database, cited from earlier work
# [10] = system: SW-620; settings: SW-620, Colon, NCI database, cited from earlier work
# [11] = system: SK-MEL-2; settings: SK-MEL-2, Melanoma, NCI database, cited from earlier work
# [12] = system: SK-MEL-28; settings: SK-MEL-28, Melanoma, NCI database, cited from earlier work
# [13] = system: HCT-15; settings: HCT-15, Colon, NCI database, cited from earlier work
# [14] = system: OVCAR-4; settings: OVCAR-4, Ovarian, NCI database, cited from earlier work
# [15] = system: PC-3; settings: PC-3, Prostate, NCI database, cited from earlier work
# [16] = system: HT29; settings: HT29, Colon, NCI database, cited from earlier work
# [17] = read-out: LC50 (the source's name)
smiles,measurement,setting,value
"Nc1nc2nc[nH]c2c(=S)[nH]1 [6-TG, 6-thioguanine]",CC50,[1]; [17],> 100 µM
same,GI50,[1],0.59 µM
same,TGI,[1],35.6 µM
same,GI50,[2],0.4 µM
same,TGI,[2],70.8 µM
same,CC50,[2]; [17],> 100 µM
same,GI50,[3],0.53 µM
same,TGI,[3],15.6 µM
same,CC50,[3]; [17],> 100 µM
same,dose absorbed after oral administration,[4],up to 46%
same,GI50,[5],1.02 µM
same,TGI,[5],>100 µM
same,CC50,[5]; [17],> 100 µM
same,GI50,[6],0.73 µM
same,TGI,[6],24.0 µM
same,CC50,[6]; [17],> 100 µM
same,GI50,[7],1.14 µM
same,TGI,[7],>100 µM
same,CC50,[7]; [17],> 100 µM
same,GI50,[8],0.69 µM
same,TGI,[8],60.0 µM
same,CC50,[8]; [17],> 100 µM
same,CC50,[9]; [17],> 100 µM
same,GI50,[9],3.48 µM
same,TGI,[9],>100 µM
same,GI50,[10],1.52 µM
same,TGI,[10],>100 µM
same,CC50,[10]; [17],> 100 µM
same,GI50,[11],0.92 µM
same,TGI,[11],10.5 µM
same,CC50,[11]; [17],> 100 µM
same,GI50,[12],8.91 µM
same,TGI,[12],>100 µM
same,CC50,[12]; [17],> 100 µM
same,GI50,[13],1.07 µM
same,TGI,[13],50.9 µM
same,CC50,[13]; [17],> 100 µM
same,GI50,[14],1.49 µM
same,TGI,[14],99.5 µM
same,CC50,[14]; [17],> 100 µM
same,GI50,[15],1.77 µM
same,TGI,[15],>100 µM
same,CC50,[15]; [17],> 100 µM
same,GI50,[16],1.13 µM
same,TGI,[16],>100 µM
same,CC50,[16]; [17],> 100 µM
